Assay results: US9253983B2, “Triazole compound and use thereof” (KUREHA CORPORATION, priority 2011, dated 2016)

Tests used:
Botrytis cinerea = test: Controlling effect on cucumber gray mold by foliage spray treatment (Tests 1 and 2); type: in vivo; conditions: foliage spray 12.5 mg/L, 1,000 L/ha, four days after inoculation
Puccinia recondita = test: Efficacy of seed treatment on wheat brown rust; type: in vivo; conditions: wheat seed treatment 20 g ai/100 kg seeds, 12 days after inoculation
Description: A pot experiment was performed to evaluate the efficacy of seed treatment in controlling wheat leaf rust. Compound (1-1a) and Compound (1-2a), each of which was dissolved in DMSO to make up such a concentration that the seeds would be treated in treatment amount of 20 g ai/100 kg seeds, were each applied to wheat seeds in a vial, and thereafter 8 wheat seeds were sowed on an 80-cm^2 pot. The pot was kept in a greenhouse with water supplied to its bottom. 21 days after the sowing, the wheat seeds were inoculated with Puccinia recondita, and kept in a wet box for 2 days. After that, the pot was again kept in the greenhouse with water supplied to its bottom. 12 days after the inoculation, the percentage of affected area was found, and the protective value was calculated by the following equation. Protective value (%)=(1−(Percentage of affected area in treated region/Percentage of affected area in untreated region))×100

Microdochium nivale = test: Test 1 for antifungal effect, plate medium: M.n; type: cell-based; conditions: PDA plate medium
In short: (§1)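 Mycelial plugs, 4 mm across, were placed on PDA plates containing compound added from a DMSO solution. Cultures grew at their optimum temperatures for 1 to 7 days, and colony diameters were compared with untreated plates to give percent growth inhibition.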

Rhizoctonia solani = test: Test 1 for antifungal effect, plate medium: R.s; type: cell-based; conditions: PDA plate medium
Description: Compound (1-1a) or Compound (1-2a) was dissolved in dimethyl sulfoxide, and the resulting solution was added to a PDA medium (potato dextrose-agar medium) at about 60° C. The medium and the solution were mixed thoroughly in a conical flask, poured into a petri dish, and allowed to solidify. In this way, a plate medium containing Compound (1-1a) or Compound (1-2a) at a certain concentration was prepared.
Meanwhile, test microorganisms cultured on a plate medium in advance were cut out with the use of a cork borer 4 mm in diameter, and were inoculated onto the compound-containing plate medium. After the inoculation, the microorganisms were cultured at their optimum growth temperatures (for example, refer to LIST OF CULTURES 1996 microorganisms 10th edition, Institute for Fermentation (foundation)) for 1 day to 7 days, and their growth was determined by measuring the diameter of their flora. The extent of growth of the microorganisms on the compound-containing plate medium was compared with that of microorganisms on a plate medium where no compound was added, and mycelial growth inhibition rate was calculated by the following equation: R=100(dc−dt)/dc where R is mycelial growth inhibition rate (%), dc is the flora diameter in untreated plate, and dt is the flora diameter in plate treated with the compound.
A larger antifungal index indicates a better antifungal effect.

Gibberella fujikuroi = test: Test 1 for antifungal effect, plate medium: G.f; type: cell-based; conditions: PDA plate medium
In short: as §1

Rhizopus oryzae = test: Test 1 for antifungal effect, plate medium: R.o; type: cell-based; conditions: PDA plate medium
In short: as §1

Sclerotinia sclerotiorum = test: Test 1 for antifungal effect, plate medium: S.s; type: cell-based; conditions: PDA plate medium
In short: as §1

Pyrenophora graminea = test: Test 2 for antifungal effect, plate medium: P.g; type: cell-based; conditions: PDA plate medium
In short: (§2)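 Compound in DMSO was mixed into PDA medium at about 60° C to make plates at a set concentration. These were inoculated with 4 mm mycelial plugs and grown 1–7 days at each pathogen's optimum temperature. Colony diameter was compared with compound-free plates to give growth inhibition, rated on a 1–5 scale.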

Ustilago nuda = test: Test 2 for antifungal effect, plate medium: U.n; type: cell-based; conditions: PDA plate medium
In short: as §2

Penicillium italicum = test: Test 2 for antifungal effect, plate medium: P.i; type: cell-based; conditions: PDA plate medium
In short: as §2

Septoria tritici = test: Test 2 for antifungal effect, plate medium: S.t; type: cell-based; conditions: PDA plate medium
In short: as §2

CC1(CCl)CCC(Cc2ccc(Cl)cc2)C1(O)Cn1cncn1 (single isomer, unassigned) [Compound (1-1b), (1,2-cis, 1,5-cis)-5-(4-chlorobenzyl)-2-chloromethyl-2-methyl-1-(1H-1,2,4-triazole-1-ylmethyl)cyclopentanol]
2 (Less than 70% but not less than 60%): Antifungal index (mycelial growth inhibition rate) (Microdochium nivale; 1.25 mg/L) | Antifungal index (mycelial growth inhibition rate) (Rhizoctonia solani; 0.63 mg/L) | Antifungal index (mycelial growth inhibition rate) (Rhizoctonia solani; 1.25 mg/L) | Antifungal index (mycelial growth inhibition rate) (Rhizoctonia solani; 2.50 mg/L) | Antifungal index (mycelial growth inhibition rate) (Ustilago nuda; 0.16 mg/L)
5 (90% or greater): Antifungal index (mycelial growth inhibition rate) (Gibberella fujikuroi; 0.63 mg/L) | Antifungal index (mycelial growth inhibition rate) (Gibberella fujikuroi; 1.25 mg/L) | Antifungal index (mycelial growth inhibition rate) (Gibberella fujikuroi; 2.50 mg/L) | Antifungal index (mycelial growth inhibition rate) (Sclerotinia sclerotiorum; 0.31 mg/L) | Antifungal index (mycelial growth inhibition rate) (Sclerotinia sclerotiorum; 0.63 mg/L) | Antifungal index (mycelial growth inhibition rate) (Sclerotinia sclerotiorum; 1.25 mg/L) | Antifungal index (mycelial growth inhibition rate) (Sclerotinia sclerotiorum; 2.50 mg/L) | Antifungal index (mycelial growth inhibition rate) (Pyrenophora graminea; 0.16 mg/L) | Antifungal index (mycelial growth inhibition rate) (Pyrenophora graminea; 0.31 mg/L) | Antifungal index (mycelial growth inhibition rate) (Pyrenophora graminea; 0.63 mg/L) | Antifungal index (mycelial growth inhibition rate) (Pyrenophora graminea; 1.25 mg/L) | Antifungal index (mycelial growth inhibition rate) (Ustilago nuda; 1.25 mg/L) | Antifungal index (mycelial growth inhibition rate) (Penicillium italicum; 0.16 mg/L) | Antifungal index (mycelial growth inhibition rate) (Penicillium italicum; 0.31 mg/L) | Antifungal index (mycelial growth inhibition rate) (Penicillium italicum; 0.63 mg/L) | Antifungal index (mycelial growth inhibition rate) (Penicillium italicum; 1.25 mg/L) | Antifungal index (mycelial growth inhibition rate) (Septoria tritici; 0.63 mg/L) | Antifungal index (mycelial growth inhibition rate) (Septoria tritici; 1.25 mg/L)
4 (Less than 90% but not less than 80%): Antifungal index (mycelial growth inhibition rate) (Gibberella fujikuroi; 0.31 mg/L) | Antifungal index (mycelial growth inhibition rate) (Rhizopus oryzae; 2.50 mg/L) | Antifungal index (mycelial growth inhibition rate) (Pyrenophora graminea; 0.08 mg/L) | Antifungal index (mycelial growth inhibition rate) (Ustilago nuda; 0.63 mg/L) | Antifungal index (mycelial growth inhibition rate) (Penicillium italicum; 0.08 mg/L)
1 (Less than 60%): Antifungal index (mycelial growth inhibition rate) (Microdochium nivale; 0.16 mg/L) | Antifungal index (mycelial growth inhibition rate) (Microdochium nivale; 0.31 mg/L) | Antifungal index (mycelial growth inhibition rate) (Microdochium nivale; 0.63 mg/L) | Antifungal index (mycelial growth inhibition rate) (Rhizoctonia solani; 0.16 mg/L) | Antifungal index (mycelial growth inhibition rate) (Rhizoctonia solani; 0.31 mg/L) | Antifungal index (mycelial growth inhibition rate) (Rhizopus oryzae; 0.16 mg/L) | Antifungal index (mycelial growth inhibition rate) (Rhizopus oryzae; 0.31 mg/L) | Antifungal index (mycelial growth inhibition rate) (Rhizopus oryzae; 0.63 mg/L) | Antifungal index (mycelial growth inhibition rate) (Rhizopus oryzae; 1.25 mg/L) | Antifungal index (mycelial growth inhibition rate) (Ustilago nuda; 0.04 mg/L) | Antifungal index (mycelial growth inhibition rate) (Ustilago nuda; 0.08 mg/L) | Antifungal index (mycelial growth inhibition rate) (Septoria tritici; 0.04 mg/L) | Antifungal index (mycelial growth inhibition rate) (Septoria tritici; 0.08 mg/L) | Antifungal index (mycelial growth inhibition rate) (Septoria tritici; 0.16 mg/L)
3 (Less than 80% but not less than 70%): Antifungal index (mycelial growth inhibition rate) (Microdochium nivale; 2.50 mg/L) | Antifungal index (mycelial growth inhibition rate) (Gibberella fujikuroi; 0.16 mg/L) | Antifungal index (mycelial growth inhibition rate) (Sclerotinia sclerotiorum; 0.16 mg/L) | Antifungal index (mycelial growth inhibition rate) (Pyrenophora graminea; 0.04 mg/L) | Antifungal index (mycelial growth inhibition rate) (Ustilago nuda; 0.31 mg/L) | Antifungal index (mycelial growth inhibition rate) (Penicillium italicum; 0.04 mg/L) | Antifungal index (mycelial growth inhibition rate) (Septoria tritici; 0.31 mg/L)
45%: Protective value (%) (Botrytis cinerea)
63%: Protective value (%) (Puccinia recondita)
